The values below come from US5075308A, “Method for treating urinary obstruction” (Hitachi Chemical Co., Ltd., priority 1989, dated 1991).

The test system of assay [1] is α1-adrenoceptor (thoracic aorta). In words: α1-adrenoceptor-blocking activity in rabbit thoracic aorta strips (noradrenaline contraction, Schild plot). As to conditions: rabbit thoracic aorta helical strips, endothelium denuded; antagonism of noradrenaline contraction; mean (± standard deviation). The procedure:
(§1) Male albino rabbits weighing 2.2-2.5 kg were intravenously given pentobarbital (Nembutal® manufactured by Abbott) at a dose of 35 mg/kg body weight and sacrificed by exsanguination. The thoracic aorta and urinary bladder were rapidly excised and placed in modified Krebs solution. After removal of fat and unnecessary connective tissue, helical strips (3×15 mm in size) of the thoracic aorta and longitudinal strips (3×15 mm in size) of trigonum vesicae were prepared and used as specimen. The helical strips were carefully denuded of endothelium attached thereto in order to avoid any effect of the endothelium-derived vascular relaxing factors.
(§2) The preparations were vertically mounted in an organ bath filled with 20 ml of the modified Krebs solution (aerated with a gas mixture of 95 vol % of oxgen and 5 vol % of carbon dioxide and kept at 37° C.). The other end of each strip was attached to a transducer for tension measurement (the model TB-6llT manufactured by Nihon Kohden Kogyo K.K.). Changes in tension were recorded on a pen-writing oscillograph (the model Wi-68lG manufactured by Nihon Kohden Kogyo K.K.). Composition of the modified Krebs solution used herein was as follows: NaCl 115.0, KCl 4.7, MgSO4.7H2 O 1.2, CaCl2.2H2 O 2.5, KH2 PO4 1.2, NaHCO3 25.0 and glucose 10.0 (concentration in mM). The solution contained 10^-6 M propranolol, a […] (manufactured by Sigma). The loading tension was adjusted to attain a weight of 2 g for aorta and a weight of 1 g for trigone. The strips were allowed to equilibrate for at least 60 min. before initiation of the experiment, and during this period the modified Krebs solution in the organ bath was replaced every 20 min.
(§3) First, noradrenaline (manufactured by Sigma, 10^-6 -10^-4 M) was cumulatively added to each specimen to prepare a concentration-response curve to noradrenaline (to determine the 50% effective concentration ED50). […] The results were analyzed by Schild plotting to determine pA2 ([…] of concentration of the blocking agent necessary for parallel shift of the 50% contraction caused by noradrenaline to a concentration two fold as high).

In assay [2] the target is T1, α1-adrenoceptor (trigonum vesicae) (Oryctolagus cuniculus, UniProt O02824).
T1 construct: longitudinal strips (3×15 mm in size) of trigonum vesicae; from tissue; host or cells: rabbit urinary bladder, longitudinal strips of trigonum vesicae
T1 sequence (O02824 1-466): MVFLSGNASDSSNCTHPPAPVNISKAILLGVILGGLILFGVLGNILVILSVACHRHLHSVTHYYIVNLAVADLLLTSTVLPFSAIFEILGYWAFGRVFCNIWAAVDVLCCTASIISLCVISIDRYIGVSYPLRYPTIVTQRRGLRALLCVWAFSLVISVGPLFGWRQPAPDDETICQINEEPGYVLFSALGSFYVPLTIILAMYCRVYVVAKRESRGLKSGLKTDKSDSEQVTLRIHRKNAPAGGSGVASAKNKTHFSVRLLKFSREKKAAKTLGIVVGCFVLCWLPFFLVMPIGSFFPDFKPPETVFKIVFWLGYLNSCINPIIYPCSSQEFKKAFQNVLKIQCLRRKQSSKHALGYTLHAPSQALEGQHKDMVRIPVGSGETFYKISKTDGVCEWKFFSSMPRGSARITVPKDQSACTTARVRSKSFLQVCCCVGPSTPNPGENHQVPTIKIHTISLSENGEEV
In words: α1-adrenoceptor-blocking activity in rabbit trigonum vesicae strips (noradrenaline contraction, Schild plot). To be noted: rabbit trigonum vesicae longitudinal strips; antagonism of noradrenaline contraction; mean (± standard deviation); read-out: pA2, trigonum vesicae (converted). The procedure:
as §1, §2, §3

Assay [3] concerns α1-adrenoceptor (trigonum vesicae). Described as above. As to conditions: for Activity ratio: ratio of pA2 (calculated as concentration) with trigonum vesicae to pA2 with thoracic aorta. The procedure: as §1, §2, §3

On to `COc1ccccc1N1CCN(CCNc2nc(C)c(C(C)=O)c(C)n2)CC1` [Compound 1, 2-[2-(4-(2-methoxyphenyl)-l-piperazinyl)ethyl]amino-5-acetyl-4,6-dimethylpyrimidine], for which the “pA2, thoracic aorta” value in assay [1] amounted to 7.35. Moreover, in assay [2], the Kb is 8.51 nM. Also, the Activity ratio in assay [3] is 5.25.
Consider `CCOC(=O)c1c(C)nc(NCCCCN2CCN(c3ccccc3OC)CC2)nc1C` [Compound 2, 2-[4-(4-(2-methoxyphenyl)-l-piperazinyl)butyl]amino-5-ethoxycarbonyl-4,6-dimethylpyrimidine], for which, in assay [1], the “pA2, thoracic aorta” value came to 7.47. Moreover, the Kb in assay [2] was 5.01 nM. Further, in assay [3], the Activity ratio was 6.76.
The like results for `COc1ccnc(NCCCCN2CCN(c3ccccc3OC)CC2)n1` [Compound 9, 2-[4-(4-(2-methoxyphenyl)-l-piperazinyl)butyl]amino-4-methoxypyrimidine] were, in that order, 7.96, 6.17 nM and 1.78.
The like results for `COc1ccccc1N1CCN(CCNc2ncccn2)CC1` [Compound 6, 2-[2-(4-(2-methoxyphenyl)-l-piperazinyl)ethyl]amino-pyrimidine] were, in that order, 7.74, 7.94 nM and 2.29.
As for `COc1ccnc(NCCN2CCN(c3ccccc3OC)CC2)n1` [Compound 8, 2-[2-(4-(2-methoxyphenyl)-l-piperazinyl)ethyl]amino-4-methoxypyrimidine], the “pA2, thoracic aorta” value in assay [1] is 7.92. Besides, in assay [2], the Kb was 6.46 nM. Also, the Activity ratio in assay [3] was 1.86.
For the compound `COc1ccccc1N1CCN(CCNc2nc(C)cc(C)n2)CC1` [Compound 3, 2-[2-(4-(2-methoxyphenyl)-l-piperazinyl)ethyl]amino-4,6-dimethylpyrimidine], the “pA2, thoracic aorta” value in assay [1] was 7.67. Moreover, the Kb in assay [2] is 7.08 nM. The Activity ratio in assay [3] is on record as 3.02.
Regarding `COc1ccccc1N1CCN(CCNc2nccc(Cl)n2)CC1` [Compound 5, 2-[2-(4-(2-methoxyphenyl)-l-piperazinyl)ethyl]amino-4-chloropyrimidine], the “pA2, thoracic aorta” value in assay [1] was found to be 7.83. The Kb in assay [2] is 5.25 nM. For the same compound, in assay [3], the Activity ratio is listed as 2.82.
As to `COc1cc2nc(N3CCN(C(=O)c4ccco4)CC3)nc(N)c2cc1OC` [Prazosin, reference compound], in assay [1], the “pA2, thoracic aorta” value was found to be 8.55. Moreover, the “pA2 comparison trigonum vesicae vs thoracic aorta (in words)” value in assay [3] was “larger pA2 in the thoracic aorta than in the trigonum vesicae”.
Take `CCOC(=O)c1c(C)nc(NCCN2CCN(c3ccccc3OC)CC2)nc1C` [Compound 7, 2-[2-(4-(2-methoxyphenyl)-l-piperazinyl)ethyl]amino-5-ethoxycarbonyl-4,6-dimethylpyrimidine]: the “pA2, thoracic aorta” value in assay [1] is 7.92. Also, in assay [2], the Kb is 5.5 nM. The Activity ratio in assay [3] was 2.19.
`CCOC(=O)c1c(C)nc(NCCCN2CCN(c3ccccc3OC)CC2)nc1C` [Compound 4, 2-[3-(4-(2-methoxyphenyl)-l-piperazinyl)propyl]amino-5-ethoxycarbonyl-4,6-dimethylpyrimidine]: in assay [1], the “pA2, thoracic aorta” value turned out to be 7.65. In addition, the Kb in assay [2] was 5.25 nM. Also, in assay [3], the Activity ratio is listed as 4.27.
